Test results as given in article PMC10419416, “Fighting Pseudomonas aeruginosa Infections: Antibacterial and Antibiofilm Activity of D-Q53 CecB, a Synthetic Analog of a Silkworm Natural Cecropin B Variant” (International Journal of Molecular Sciences, 2023).
≈ marks a conversion by molar mass, not a printed value. Non-standard residues stand in square brackets, D forms with d. Residues, ends and D or L forms follow the SMILES beside them. No end group written: not given here.

Key:
Type in all cases: cell-based, Pseudomonas aeruginosa
[1] = test system: P. aeruginosa ATCC 27853 and ATCC 25668 strains; assay: microbe, parasite or virus in culture; conditions: ATCC 27853, 24 h
Description: The following strains were used: P. aeruginosa ATCC 27853, ATCC 25668, and PAO1-L (Lausanne subline). All strains were grown at 37 °C in Luria Bertani (LB) medium or in Luria Bertani Agar (LBA) plates.
The antibacterial activities of L- and D-Q53 CecB were evaluated by determining (i) the MIC and (ii) the MBC. Tobramycin (Merck) was used as an antibiotic control. (i) An overnight (ON) bacterial culture was diluted to 1 × 10^6 cells/mL in LB medium. 50 µL/well were seeded in sterile polypropylene 96-well plates (Corning, Corning, NY, USA) and added with 50 µL LB medium, containing serial dilutions of each compound (final concentrations of L- and D-Q53 CecB peptides from 1.1 to 35.2 µM; final concentrations of tobramycin from 0.26 to 17 μM; each condition in triplicate). Microbial suspensions in the growing medium (positive control) and wells with only the medium (negative controls) were processed in parallel. Plates were incubated 24 h at 37 °C with agitation (300 rpm), and the absorbance was measured at 600 nm in a microplate reader. The MIC was considered as the lowest concentration determining a delta optical density at 600 nm (ΔOD600) equal to 0 ± 0.05. The ΔOD600 was determined by subtracting the OD600 recorded at time 0 from that obtained after 24 h. Each experiment was performed at least three times. […] For each sample, 100 μL of 1:10, 1:100, and 1:1000 dilutions were plated on LBA plates, and colonies were counted after 24 h at 37 °C. […] Each experiment was performed at least twice.

[2] = test system: P. aeruginosa ATCC 25668, mucoid strain; conditions: for inhibitory effect on biofilm formation: 1/32 and 1/64 MIC, 24 h
Description: (§1) An ON bacterial culture was diluted to 2 × 10^6 cells/mL in an LB medium. 50 µL/well were seeded in a sterile non-treated polystyrene 96-well plate (Corning) and added with 50 µL LB medium containing serial dilutions of each compound (final concentrations of L- and D-Q53 CecB peptides: from 0.034 to 17.6 µM; final concentrations of tobramycin: 0.27 and 0.53 μM, and from 2.14 to 17 μM). Each condition was tested in three-six replicates. Wells containing untreated bacteria (negative controls) or LB medium only (blank) were followed in parallel. Each plate was incubated for 24 h at 37 °C without agitation. After washing twice, samples were stained with a 0.1% crystal violet solution for 20 min, washed three times, and incubated in 30% acetic acid for 20 min, as in [74]. Plates were read at 595 nm using a microplate reader. For each sample, the biofilm biomass percentage was calculated relative to that of the untreated control showing the highest OD value, set equal to 100%. Each experiment was performed at least twice.

[3] = test system: P. aeruginosa ATCC 27853, non-mucoid strain; conditions: for inhibitory effect on biofilm formation: 1/32 and 1/64 MIC, 24 h; for decrement in biofilm biomass (inhibition of biofilm formation): ATCC 27853, 24 h
Description: as §1

[4] = test system: P. aeruginosa ATCC 27853; assay: CFU assay of medium over treated 24 h old biofilm; conditions: for mean CFUs/mL decrement vs untreated control: 1 MIC, 1 h; for living bacterial cells in the medium, Mean ± SEM: 1 h treatment of 24 h-old biofilm with 1 MIC (2.2 μM), four experiments, control 3.06 ± 2.07 × 10^14
[5] = test system: P. aeruginosa ATCC 25668; assay: CFU assay of medium over treated 24 h old biofilm; conditions: for mean CFUs/mL decrement vs untreated control: 1 MIC, 1 h; for living bacterial cells in the medium, Mean ± SEM: 1 h treatment of 24 h-old biofilm with 1 MIC (2.2 μM), four experiments, control 2.67 ± 2.67 × 10^15
[6] = test system: P. aeruginosa ATCC 25668 strain; assay: Motility assay (swimming, swarming, twitching); conditions: 1/2 MIC L-Q53 CecB or 1/4 MIC D-Q53 CecB; for effect on swimming motility: 0.3% agar LB plates; for effect on swarming motility: 0.5% agar LB plates; for effect on twitching motility (bacterial growth area): 1% agar LB plates
Description: The motility assay was performed as in [36], with minor modifications. […] Inocula were performed with a sterile toothpick (i) within the medium to detect swimming, (ii) on the top of the medium to detect swarming, and (iii) on the bottom of the plate to detect twitching. Bacteria grown and plated in the absence of any peptide were processed as negative controls. Plates were incubated at 30 °C (for swimming and swarming) or 37 °C (for twitching) and monitored for 24–48 h. Plate images were taken with a digital camera. Post-acquisition analyses were performed with Fiji, an open-source image-processing package based on ImageJ (http://fiji.sc/wiki/index.php, downloaded on 4 April 2022). Swimming, swarming, and twitching data were obtained by calculating the area of the growing zone over the total area of each plate. Values were expressed as percentages. Each type of motility was evaluated in at least four independent experiments, each with one replica per condition.

[7] = test system: P. aeruginosa biofilms (ATCC 25668); assay: Confocal microscopy of pre-formed biofilm, thickness; conditions: 1 h treatment with 1 MIC (2.2 μM) of 24 h old biofilm; 6-8 confocal fields
Description: Bacteria cells (1 × 10^6 cells/mL) were grown in Permanox four-wells chamber slide systems (1.8 cm^2/well; Nunc® Lab-Tek® Chamber SlideTM system) at 37 °C for 24 h without agitation to allow biofilm formation. […] Negative controls, treated with LB only, were followed in parallel. […] After each staining, samples were washed twice with PBS. After washing, samples were fixed in 4% Paraformaldehyde, mounted in VECTASHIELD® mounting medium (Vector Laboratories, Newark, CA, USA), and observed using a Zeyss LSM 900 Airyscan 2 confocal microscope and a ×63 oil immersion objective. Optical sections (Z-series) were taken at 0.2 μm intervals. Experiments were performed four times (one-two replicates per condition). […] EPS was visualized using a 405 nm wavelength for excitation and 413-480 nm for emission (blue); to detect proteins or Propidium Iodide (red), a 543 nm wavelength for excitation and 590-610 nm for emission were used. Post-acquisition analyses were performed with Fiji (http://fiji.sc/wiki/index.php, downloaded on 4 April 2022). Cross-section views (x-z and y-z planes were obtained with the “Orthogonal View” plugin. To evaluate live and dead cells, images of single 0.13 μm slices taken in the upper part of the biofilm (i.e., in contact with the peptide during treatment) were processed using the “Counting Objects” plugin, and the same threshold level for red and green colors.

| Molecule | MBC [1] | inhibitory effect on biofilm formation [2] | decrement in biofilm biomass (inhibition of biofilm formation) ([2]; ATCC 25668, 24 h) | mean decrement in biofilm biomass (inhibition of biofilm formation) ([2]; ATCC 25668, 24 h) | inhibitory effect on biofilm formation [3] | decrement in biofilm biomass (inhibition of biofilm formation) [3] | mean CFUs/mL decrement vs untreated control [4] | living bacterial cells in the medium, Mean ± SEM [4] | mean CFUs/mL decrement vs untreated control [5] | living bacterial cells in the medium, Mean ± SEM [5] | effect on swimming motility [6] | effect on swarming motility [6] | effect on twitching motility (bacterial growth area) [6] | reduction in biofilm thickness vs untreated controls [7] |
| --- | --- | --- | --- | --- | --- | --- | --- | --- | --- | --- | --- | --- | --- | --- |
| CC[C@@H](C)[C@@H](NC(=O)[C@@H](C)NC(=O)[C@@H](CCCCN)NC(=O)[C@@H](C)NC(=O)[C@@H](CO)NC(=O)CNC(=O)[C@@H](CC(C)C)NC(=O)[C@H](NC(=O)[C@@H](CCC(N)=O)NC(=O)[C@H](NC(=O)[C@@H](C)NC(=O)[C@H]1CCCN1C(=O)CNC(=O)[C@@H](C)NC(=O)[C@@H](CCCCN)NC(=O)[C@H](NC(=O)[C@H](NC(=O)CNC(=O)[C@@H](CC(=O)O)NC(=O)[C@@H](CCCNC(=N)N)NC(=O)[C@H](NC(=O)[C@@H](CC(N)=O)NC(=O)[C@@H](CCCNC(=N)N)NC(=O)CNC(=O)[C@@H](CCSC)NC(=O)[C@@H](CCCCN)NC(=O)[C@@H](CCC(=O)O)NC(=O)[C@H](NC(=O)[C@@H](CCCCN)NC(=O)[C@@H](CCCCN)NC(=O)[C@@H](Cc1ccccc1)NC(=O)[C@H](NC(=O)[C@@H](CCCCN)NC(=O)[C@@H](Cc1c[nH]c2ccccc12)NC(=O)[C@H](N)CCCNC(=N)N)[C@H](C)CC)[C@H](C)CC)[C@H](C)CC)[C@H](C)CC)C(C)C)[C@H](C)CC)C(C)C)C(N)=O [D-Q53 CecB] (H-[dR][dW][dK][dI][dF][dK][dK][dI][dE][dK][dM]G[dR][dN][dI][dR][dD]G[dI][dV][dK][dA]G[dP][dA][dI][dQ][dV][dL]G[dS][dA][dK][dA][dI]-NH2; N-terminus and C-terminus assumed) | 4.40 µM (≈ 17.1 µg/mL) | did not show any significant inhibitory effect | 30 to 44% | 93% | did not show any significant inhibitory effect | 30 to 60% | 4 orders of magnitude | 1.07 ± 1.06 × 10^10 CFUs/mL | 7 orders of magnitude | 6.70 ± 6.6 × 10^8 CFUs/mL | not able to affect | not able to affect | significant reductions | ~ 77% |
| RWKIFKKIEKMGRNIRDGIVKAGPAIQVLGSAKAI-NH2 [L-Q53 CecB] | 11 µM | did not show any significant inhibitory effect | 30 to 44% |  | did not show any significant inhibitory effect | 30 to 60% | 6 orders of magnitude | 7.03 ± 4.10 × 10^8 CFUs/mL | 10 orders of magnitude | 2.89 ± 2.38 × 10^5 CFUs/mL | not able to affect | not able to affect | no effect | did not significantly reduce biofilm thickness |
